In patent US7598421B2, “Materials for the delivery of biologically-active material to cells” (UCL Biomedica PLC, priority 2002, dated 2009):

Columns and labels:
[1] = tested on: Human airway epithelial cells; experiment: Transfection efficiency, luciferase assay in HAE cells (Example 19); assay type: cell-based; set-up: scale not given here; conditions: peptide:DNA 4:1, peptide [K]16 GACRRETAWACG
Protocol: The activity of various compositions of the invention was measured in HAE cells using a Luciferase assay. RLU/mg refers to relative light units per mg of protein. The assay was carried out as follows:
Lipid (10 mg/mL; […] [1 mg of lipid]) in chloroform was placed into a glass vial (sterile). The solvents were removed in vacuo and further traces of chloroform were removed on the high vacuum for 24 h. Cationic lipids were either formulated alone or with DOPE (mole ratio, 1:1).
Deionized water (1 mL; MilliQ) was added to the film, to generate […] solution of lipid in water. The mixture was allowed to hydrate at 4° C. for 24 h. After warming to 40° C. the mixture was sonicated to generate a clear solution (5 in approx). The resulting liposome formulations were stable for up to 3 months.
The components of the complex were mixed in the required weight ratio. The lipid was initially mixed with the peptide and the resulting mixture was added to the plasmid DNA.
Human airway epithelial cells were seeded for 24 h at 37 °C in complete growth medium in a […]. Transfection complexes were left to aggregate for 30 min and diluted to a concentration of 1 μg of DNA per 0.5 ml in OptiMEM (Life technologies). The medium was removed from each well and replaced with 0.5 ml of transfection complex and was allow to incubate for a further 4 h. The transfection complexes were removed and then replace with growth medium and the cells were allowed to incubate for 48 h.
The transfected cells were washed with phosphate-buffered saline (PBS). Reporter lysis buffer (100 μl) (Promega) was added to each well and cooled to 4 °C for 15 min. The cells were then assayed with a luciferase assay kit. The total light emission was measured for each well for 60 sec. The protein concentration of each sample was determined using a protein assay reagent and the activity expressed as relative light units per milligram of protein (RLU/mg).
The values obtained for the lipids produced in Examples 17 and 18 above and for Lipofectin were measured at 1:1 and 2:1 ratios of lipid:DNA, and in each case the ratio of peptide:DNA was 4:1, the peptide used being [K]16 GACRRETAWACG. The ratios are expressed in terms of weight. The testing procedure used was that outlined in Human Gene Therapy 9, 575-585, 1998.

integrins = conditions: cited from earlier work; for affinity and specificity for integrins: literature

Row | Compound | luciferase activity, relative light units per mg of protein ([1]; 1:1 lipid:DNA by weight) [RLU/mg] | luciferase activity, relative light units per mg of protein ([1]; 2:1 lipid:DNA by weight) [RLU/mg] | affinity and specificity for integrins (integrins) | integrin specificity (integrins; table of peptides)
1 | CCCCCCCC/C=C\CCCCCCCC(=O)OC(C[N+](C)(C)C)C(C[N+](C)(C)C)OC(=O)CCCCCCC/C=C\CCCCCCCC.[I-].[I-] (centres unmarked) [Example 17, 1,4-Di(trimethylammonium)-2,3-dioleoyloxy-butane; diiodide] | 1.2 | 2.0 | – | –
2 | CCCCCCCC/C=C\CCCCCCCCOC(C[N+](C)(C)C)C(C[N+](C)(C)C)OCCCCCCCC/C=C\CCCCCCCC (centres unmarked) [Example 18, 1,4-Di(trimethylammonium)-2,3-dioleyloxy-butane; diiodide] | 43.2 | 373.3 | – | –
3 | GACDCRGDCFCA [Peptide 5] | – | – | high affinity for integrin v but is not v-specific | Peptide 5 (αv)
4 | GACRGDMFGCA [Peptide 1] | – | – | affinity for 5 and av integrins but is non-specific | –
5 | GACRRETAWACG [Peptide 6] | – | – | 51-specific | –
